The target of the test is NaV1.5 (Homo sapiens, UniProt Q14524). Put plainly: manual whole-cell patch clamp in CHL cells stably expressing SCN5A. It counts as cell-based.
NaV1.5, sequence (Q14524 whole entry): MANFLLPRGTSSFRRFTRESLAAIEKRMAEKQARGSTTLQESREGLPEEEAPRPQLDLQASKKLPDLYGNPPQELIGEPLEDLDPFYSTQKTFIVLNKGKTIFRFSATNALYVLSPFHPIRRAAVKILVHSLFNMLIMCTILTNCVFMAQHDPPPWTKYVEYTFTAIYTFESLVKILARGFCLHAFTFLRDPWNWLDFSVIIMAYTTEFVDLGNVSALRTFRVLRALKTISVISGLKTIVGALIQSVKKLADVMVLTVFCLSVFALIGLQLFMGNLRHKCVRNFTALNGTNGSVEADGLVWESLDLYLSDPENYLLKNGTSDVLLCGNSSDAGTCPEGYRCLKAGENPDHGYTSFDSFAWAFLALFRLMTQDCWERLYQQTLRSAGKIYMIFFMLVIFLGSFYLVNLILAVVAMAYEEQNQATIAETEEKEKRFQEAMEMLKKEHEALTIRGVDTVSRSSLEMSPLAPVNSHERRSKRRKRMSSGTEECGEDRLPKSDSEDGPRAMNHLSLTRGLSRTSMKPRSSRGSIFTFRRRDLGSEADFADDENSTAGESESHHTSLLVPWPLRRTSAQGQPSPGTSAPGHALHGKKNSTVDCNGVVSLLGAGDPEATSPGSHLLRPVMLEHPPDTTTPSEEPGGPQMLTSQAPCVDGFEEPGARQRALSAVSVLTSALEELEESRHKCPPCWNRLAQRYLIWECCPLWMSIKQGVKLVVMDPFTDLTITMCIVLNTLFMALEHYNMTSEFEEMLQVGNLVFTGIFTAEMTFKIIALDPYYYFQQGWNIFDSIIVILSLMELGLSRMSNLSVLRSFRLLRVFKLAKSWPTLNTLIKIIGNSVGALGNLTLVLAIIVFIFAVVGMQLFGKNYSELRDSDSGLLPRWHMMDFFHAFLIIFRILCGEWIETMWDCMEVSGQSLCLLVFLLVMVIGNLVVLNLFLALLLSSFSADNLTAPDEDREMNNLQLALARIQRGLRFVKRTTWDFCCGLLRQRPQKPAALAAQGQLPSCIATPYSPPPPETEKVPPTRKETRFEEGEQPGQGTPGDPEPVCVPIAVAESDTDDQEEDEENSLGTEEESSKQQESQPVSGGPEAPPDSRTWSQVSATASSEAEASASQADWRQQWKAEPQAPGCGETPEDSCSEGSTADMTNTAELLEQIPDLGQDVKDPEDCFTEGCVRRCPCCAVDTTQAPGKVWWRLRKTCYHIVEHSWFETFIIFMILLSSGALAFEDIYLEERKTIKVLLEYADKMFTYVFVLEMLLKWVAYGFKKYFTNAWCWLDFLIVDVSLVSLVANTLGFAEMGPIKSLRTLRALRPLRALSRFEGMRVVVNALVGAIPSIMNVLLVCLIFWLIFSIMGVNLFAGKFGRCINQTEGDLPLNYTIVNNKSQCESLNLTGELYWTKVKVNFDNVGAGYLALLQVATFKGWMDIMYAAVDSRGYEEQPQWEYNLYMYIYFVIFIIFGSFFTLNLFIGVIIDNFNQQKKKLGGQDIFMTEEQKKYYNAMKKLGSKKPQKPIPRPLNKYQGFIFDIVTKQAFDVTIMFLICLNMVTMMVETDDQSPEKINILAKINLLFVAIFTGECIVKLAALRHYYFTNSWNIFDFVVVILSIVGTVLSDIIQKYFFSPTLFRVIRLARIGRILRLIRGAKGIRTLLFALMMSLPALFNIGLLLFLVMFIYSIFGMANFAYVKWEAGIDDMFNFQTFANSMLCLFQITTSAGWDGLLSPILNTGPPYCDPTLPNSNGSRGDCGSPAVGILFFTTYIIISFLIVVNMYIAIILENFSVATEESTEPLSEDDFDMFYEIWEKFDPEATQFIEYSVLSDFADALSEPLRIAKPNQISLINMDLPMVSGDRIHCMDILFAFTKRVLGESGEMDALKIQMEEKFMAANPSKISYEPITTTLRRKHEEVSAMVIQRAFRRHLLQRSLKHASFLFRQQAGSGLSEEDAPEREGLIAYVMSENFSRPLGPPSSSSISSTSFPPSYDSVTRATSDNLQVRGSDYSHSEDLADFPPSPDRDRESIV

On to `CCCCCCCCCCCC(=O)O` [LA, lauric acid], for which the IC50 worked out at 27.4 ± 12.8 µM.

Values taken from PMC11727701 (Drug Design, Development and Therapy, 2025).
